Patent US11203563B2, “Preparation of zinc linolenate, and application of zinc linolenate in preparing anti-helicobacter pylori drug” (NANJING MEDICAL UNIVERSITY, priority 2018, dated 2021)

How the values were obtained:
AGS cells = system: AGS cells
Experimental: 2.4.1 Cytotoxicity detection
(1) Ges-1 and AGS cell suspensions are prepared, and the concentration is adjusted to 1×10^6.
(2) Inoculation into a 96-well plate: 100 μL is added per well, and 3 replicates is performed for the same sample.
(3) Culture is performed for 12 hours in an incubator at 37° C.
(4) 10 μL of zinc linolenate, 10 μL of linolenic acid, and 10 μL of zinc chloride are added respectively, and the working concentrations are 400 μg/mL, 300 μg/mL, 200 μg/mL, 100 μg/mL, and 0 μg/mL, respectively. A group added with drugs and without cells and a PBS control group are set.
(5) Culture is performed for 12 hours in an incubator at 37° C.
(6) 10 μL of CCK-8 is added, mixed by tapping and incubated for 4 hours.
(7) The absorbance at 450 nm is measured, and the survival rate is calculated according to the formula: cell proliferation rate[(As−Ab)]/[(Ac−Ab)]×100%, wherein As are wells containing the cell culture medium, drugs, and CCK-8; Ac are wells containing the cell culture medium, CCK-8, and no drug; and Ab are wells containing no cells and drugs, but only the culture medium and CCK-8. A survival curve is established based on the survival rate.

[1] = Blood biochemical indexes of liver and kidney functions, infected and treated mice; conditions: infected mice, therapeutic dose (omeprazole 138.2, amoxicillin 28.5, clarithromycin 14.3, zinc linolenate 24 mg/kg), intragastric, serum
Experimental: (2) Animal administration: the experimental group is intragastrically administered. The group with omeprazole is administered with omeprazole first, and then administered with other drugs 30 min later. After the mice are administered with the drugs, the mice fast for 4 hours. Calculated according to an average of 20 g/mouse of the weight of mice, the dosage is: omeprazole 138.2 mg/kg, amoxicillin 28.5 mg/kg, clarithromycin 14.3 mg/kg, and zinc linolenate 24 mg/kg, once a day for 5 consecutive times. The negative control group is administered with a PBS solution with the same dosage and number of times as above.
(3) Efficacy test: the mice in the infection group are weighed and the average weight is calculated on the 2 days after the drug is stopped. Blood is taken from the eyeballs and the mice are sacrificed by cervical dislocation. Stomach tissue is taken, and the isolation, culture and identification of Helicobacter pylori are the same as in 2.3.3 (3) and (4).
(4) Efficacy test: the mice in the infection group are weighed 3 days after the drug is stopped, and the average weight is calculated. Blood is taken from the eyeballs, and the mice are sacrificed by cervical dislocation. Stomach, kidney, liver and spleen tissues are taken, pathologically sectioned and HE stained, and serum is tested for liver and kidney functions.

Structure (SMILES): CC/C=C\C/C=C\C/C=C\CCCCCCCC(=O)[O-].CC/C=C\C/C=C\C/C=C\CCCCCCCC(=O)[O-].[Zn+2] [zinc linolenate]
- toxicity compared with linolenic acid (AGS cells): smaller than that of linolenic acid
- Alanine aminotransferase [1]: 50.00 U/L
- Aspartate aminotransferase [1]: 192.33 U/L
- Blood urea nitrogen [1]: 14.97 mmol/L
- Creatinine [1]: 18.33 µmol/L
